Marks after values point to notes of the source that are not given here.
Legend:
ovine recombinant COX–1 = molecular target: T1, ovine recombinant COX–1 (Ovis aries, UniProt P05979); test: cell-free COX–1 enzyme assay (PGE2 formation, LC-MS); type: biochemical; design: purchased Cayman Chemicals/ Biomol, Hamburg, Germany
T1 sequence (P05979 25-600): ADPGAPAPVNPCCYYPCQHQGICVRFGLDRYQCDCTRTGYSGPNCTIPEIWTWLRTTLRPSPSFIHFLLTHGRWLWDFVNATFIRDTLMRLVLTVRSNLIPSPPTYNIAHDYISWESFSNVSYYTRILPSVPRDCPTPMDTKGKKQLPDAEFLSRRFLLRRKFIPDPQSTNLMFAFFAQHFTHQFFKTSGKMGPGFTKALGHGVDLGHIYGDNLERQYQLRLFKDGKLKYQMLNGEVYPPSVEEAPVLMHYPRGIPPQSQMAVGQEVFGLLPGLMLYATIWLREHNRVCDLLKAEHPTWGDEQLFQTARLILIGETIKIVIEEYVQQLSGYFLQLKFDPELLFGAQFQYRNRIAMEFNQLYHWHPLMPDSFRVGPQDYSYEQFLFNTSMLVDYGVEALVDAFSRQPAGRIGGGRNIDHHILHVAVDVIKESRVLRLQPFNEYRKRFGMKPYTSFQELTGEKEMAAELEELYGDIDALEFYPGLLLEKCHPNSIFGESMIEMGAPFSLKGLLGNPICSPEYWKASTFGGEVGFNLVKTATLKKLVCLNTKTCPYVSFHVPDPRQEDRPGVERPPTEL

[1] = system: arachidonic acid (AA) cascade; test: liver tissue oxylipin/PG levels in LPS induced sepsis in mice; type: in vivo, C57BL/6N mice; conditions: liver tissue 24 h after LPS treatment; for 4,5-DiHDPE concentration / 4-HDHA concentration / 5(6)-EpETrE concentration / 5,6-DiHETE concentration / 5,6-DiHETrE concentration / 5-HEPE concentration / 5-HETE concentration / 5-iPF2α concentration / 5-oxo-ETE concentration / 6-keto-PGF1α concentration / 7,8-DiHDPE concentration / 7-HDHA concentration / 8(9)-EpETE concentration / 8(9)-EpETrE concentration / 8,9-DiHETE concentration / 8,9-DiHETrE concentration / 8,15-DiHETE concentration / 8-HDHA concentration / 8-HEPE concentration / 8-HETE concentration / 8-iPF2α concentration / 9(10)-EpODE concentration / 9(10)-EpOME concentration / 9(10)-Epoxystearic acid concentration / 9,10,13-TriHOME concentration / 9,10-DiHODE concentration / 9,10-DiHOME concentration / 9,10-Dihydroxystearic acid concentration / 9,12,13-TriHOME concentration / 9-HETE concentration / 9-HODE concentration / 9-HOTrE concentration / 9-oxo-ODE concentration / 10(11)-EpDPE concentration / 10,11-DiHDPE concentration / 10-HDHA concentration / 11(12)-EpETE concentration / 11(12)-EpETrE concentration / 11,12-DiHETE concentration / 11,12-DiHETrE concentration / 11-HDHA concentration / 11-HETE concentration / 12(13)-EpODE concentration / 12(13)-EpOME concentration / 12,13-DiHODE concentration / 12,13-DiHOME concentration / 12-HEPE concentration / 12-HETE concentration / 13(14)-EpDPE concentration / 13,14-DiHDPE concentration / 13,14-dihydro-15-keto-PGE1 concentration / 13,14-dihydro-15-keto-PGF2α concentration / 13-HDHA concentration / 13-HODE concentration / 13-HOTrE concentration / 13-oxo-ODE concentration / 14(15)-EpETE concentration / 14(15)-EpETrE concentration / 14,15-DiHETE concentration / 14,15-DiHETrE concentration / 14-HDHA concentration / 15(16)-EpODE concentration / 15(S)-HETrE concentration / 15,16-DiHODE concentration / 15-HEPE concentration / 15-HETE concentration / 15-oxo-ETE concentration / 16(17)-EpDPE concentration / 16,17-DiHDPE concentration / 16-HDHA concentration / 17(18)-EpETE concentration / 17,18-DiHETE concentration / 17-HDHA concentration / 18-HEPE concentration / 19(20)-EpDPE concentration / 19,20-DiHDPE concentration / 20-HDHA concentration / 20-HEPE concentration / 20-HETE concentration / EKODE concentration / PGD1 concentration / PGD2 concentration / PGE1 concentration / PGE2 concentration / PGF1α concentration / TXB2 concentration / TxB3 concentration / dihomo-PGF2α concentration: mean;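 as to all read-outs here: male C57BL/6N mice pretreated i.p. with polyphenols at 100 mg/kg bw or vehicle before LPS, liver oxylipins measured by LC-MS after solid-phase extraction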

## O=c1cc(-c2ccc(O)cc2)oc2cc(O)cc(O)c12 [Apigenin, apigenin]
Ovine recombinant COX–1; 100 μM
  decreased PGE2 formation in comparison to the control, COX–1: 31%
Ovine recombinant COX–1; up to 100 μM
  inhibition, COX–1 enzyme assay: inhibition < 50%(up to 100 μM)
[1]
  4,5-DiHDPE concentration: 74 nM
  4-HDHA concentration: 12 nM
  5(6)-EpETrE concentration: 97 nM
  5,6-DiHETE concentration: < 0.30 nM
  5,6-DiHETrE concentration: 5.1 nM
  5-HEPE concentration: 2.8 nM
  5-HETE concentration: 2.8 nM
  5-iPF2α concentration: 1.1 nM
  5-oxo-ETE concentration: 15 nM
  6-keto-PGF1α concentration: 32 nM
  7,8-DiHDPE concentration: 5.2 nM
  7-HDHA concentration: 3.2 nM
  8(9)-EpETE concentration: 2.1 nM
  8(9)-EpETrE concentration: 20 nM
  8,9-DiHETE concentration: 2.3 nM
  8,9-DiHETrE concentration: 10 nM
  8,15-DiHETE concentration: < 0.80 nM
  8-HDHA concentration: 20 nM
  8-HEPE concentration: 0.98 nM
  8-HETE concentration: 8.5 nM
  8-iPF2α concentration: 2.1 nM
  9(10)-EpODE concentration: 11 nM
  9(10)-EpOME concentration: 120 nM
  9(10)-Epoxystearic acid concentration: 86 nM
  9,10,13-TriHOME concentration: 6.4^* nM
  9,10-DiHODE concentration: 8.6 nM
  9,10-DiHOME concentration: 69 nM
  9,10-Dihydroxystearic acid concentration: 53 nM
  9,12,13-TriHOME concentration: 41 nM
  9-HETE concentration: 5.2 nM
  9-HODE concentration: 370 nM
  9-HOTrE concentration: 8.1 nM
  9-oxo-ODE concentration: 120 nM
  10(11)-EpDPE concentration: 30 nM
  10,11-DiHDPE concentration: 9.8 nM
  10-HDHA concentration: 5.7 nM
  11(12)-EpETE concentration: 4.4 nM
  11(12)-EpETrE concentration: 47 nM
  11,12-DiHETE concentration: 2.9 nM
  11,12-DiHETrE concentration: 18 nM
  11-HDHA concentration: 5.5 nM
  11-HETE concentration: 21 nM
  12(13)-EpODE concentration: 5.0 nM
  12(13)-EpOME concentration: 99 nM
  12,13-DiHODE concentration: 5.7 nM
  12,13-DiHOME concentration: 140^† nM
  12-HEPE concentration: 27 nM
  12-HETE concentration: 120 nM
  13(14)-EpDPE concentration: 24 nM
  13,14-DiHDPE concentration: 11 nM
  13,14-dihydro-15-keto-PGE1 concentration: 0.57 nM
  13,14-dihydro-15-keto-PGF2α concentration: 7.0 nM
  13-HDHA concentration: 10 nM
  13-HODE concentration: 370 nM
  13-HOTrE concentration: 18 nM
  13-oxo-ODE concentration: 16 nM
  14(15)-EpETE concentration: 3.1 nM
  14(15)-EpETrE concentration: 38 nM
  14,15-DiHETE concentration: 7.4 nM
  14,15-DiHETrE concentration: 43 nM
  14-HDHA concentration: 68 nM
  15(16)-EpODE concentration: 24 nM
  15(S)-HETrE concentration: 9.0 nM
  15,16-DiHODE concentration: 49 nM
  15-HEPE concentration: 3.4 nM
  15-HETE concentration: 31 nM
  15-oxo-ETE concentration: 4.0 nM
  16(17)-EpDPE concentration: 23 nM
  16,17-DiHDPE concentration: 22 nM
  16-HDHA concentration: 6.0 nM
  17(18)-EpETE concentration: 4.2 nM
  17,18-DiHETE concentration: 15 nM
  17-HDHA concentration: 21 nM
  18-HEPE concentration: 3.3 nM
  19(20)-EpDPE concentration: 33 nM
  19,20-DiHDPE concentration: 110 nM
  20-HDHA concentration: 22 nM
  20-HEPE concentration: 15 nM
  20-HETE concentration: 7.2 nM
  EKODE concentration: 28 nM
  PGD1 concentration: 1.2 nM
  PGD2 concentration: 34 nM
  PGE1 concentration: 2.3 nM
  PGE2 concentration: 15 nM
  PGF1α concentration: 2.8 nM
  TXB2 concentration: 17 nM
  TxB3 concentration: 0.89 nM
  dihomo-PGF2α concentration: 3.6 nM
[1]; mean (first listing, r6)
  PGF2α concentration: 26 nM
[1]; mean (second listing, r9)
  PGF2α concentration: 26 nM

## O=c1c(-c2ccc(O)cc2)coc2cc(O)cc(O)c12 [Genistein, genistein]
Ovine recombinant COX–1
  effect on COX–1 dependent PGE2 formation, cell-free enzyme assay: no effect
Ovine recombinant COX–1; calculated based on PGE2, n = 3
  IC50 (95% CI), COX–1 enzyme assay: no effect (up to 30 μM)
[1]
  4,5-DiHDPE concentration: 64 nM
  4-HDHA concentration: 14 nM
  5(6)-EpETrE concentration: 90 nM
  5,6-DiHETE concentration: < 0.30 nM
  5,6-DiHETrE concentration: 6.3 nM
  5-HEPE concentration: 2.7 nM
  5-HETE concentration: 2.7 nM
  5-iPF2α concentration: < 1.0 nM
  5-oxo-ETE concentration: 19 nM
  6-keto-PGF1α concentration: 74 nM
  7,8-DiHDPE concentration: 6.3 nM
  7-HDHA concentration: 4.4 nM
  8(9)-EpETE concentration: 2.5 nM
  8(9)-EpETrE concentration: 20 nM
  8,9-DiHETE concentration: 2.6 nM
  8,9-DiHETrE concentration: 12 nM
  8,15-DiHETE concentration: 0.88 nM
  8-HDHA concentration: 25^* nM
  8-HEPE concentration: 1.2 nM
  8-HETE concentration: 10 nM
  8-iPF2α concentration: 3.0^* nM
  9(10)-EpODE concentration: 12 nM
  9(10)-EpOME concentration: 130 nM
  9(10)-Epoxystearic acid concentration: 82 nM
  9,10,13-TriHOME concentration: 8.6^* nM
  9,10-DiHODE concentration: 7.6 nM
  9,10-DiHOME concentration: 82 nM
  9,10-Dihydroxystearic acid concentration: 64 nM
  9,12,13-TriHOME concentration: 64 nM
  9-HETE concentration: 6.2 nM
  9-HODE concentration: 550 nM
  9-HOTrE concentration: 9.9 nM
  9-oxo-ODE concentration: 160 nM
  10(11)-EpDPE concentration: 33^* nM
  10,11-DiHDPE concentration: 11 nM
  10-HDHA concentration: 7.6 nM
  11(12)-EpETE concentration: 5.1^† nM
  11(12)-EpETrE concentration: 51 nM
  11,12-DiHETE concentration: 2.9 nM
  11,12-DiHETrE concentration: 22 nM
  11-HDHA concentration: 7.0 nM
  11-HETE concentration: 35 nM
  12(13)-EpODE concentration: 5.7 nM
  12(13)-EpOME concentration: 110 nM
  12,13-DiHODE concentration: 5.7 nM
  12,13-DiHOME concentration: 210 nM
  12-HEPE concentration: 39 nM
  12-HETE concentration: 150 nM
  13(14)-EpDPE concentration: 27^* nM
  13,14-DiHDPE concentration: 15 nM
  13,14-dihydro-15-keto-PGE1 concentration: 0.61 nM
  13,14-dihydro-15-keto-PGF2α concentration: 8.2^* nM
  13-HDHA concentration: 16^† nM
  13-HODE concentration: 530 nM
  13-HOTrE concentration: 18 nM
  13-oxo-ODE concentration: 20 nM
  14(15)-EpETE concentration: 3.3 nM
  14(15)-EpETrE concentration: 44^* nM
  14,15-DiHETE concentration: 8.6 nM
  14,15-DiHETrE concentration: 62 nM
  14-HDHA concentration: 97 nM
  15(16)-EpODE concentration: 27 nM
  15(S)-HETrE concentration: 14 nM
  15,16-DiHODE concentration: 63 nM
  15-HEPE concentration: 4.0 nM
  15-HETE concentration: 40 nM
  15-oxo-ETE concentration: 5.8 nM
  16(17)-EpDPE concentration: 27^* nM
  16,17-DiHDPE concentration: 35 nM
  16-HDHA concentration: 8.1^* nM
  17(18)-EpETE concentration: 4.6 nM
  17,18-DiHETE concentration: 19 nM
  17-HDHA concentration: 25 nM
  18-HEPE concentration: 4.6 nM
  19(20)-EpDPE concentration: 40^* nM
  19,20-DiHDPE concentration: 170 nM
  20-HDHA concentration: 27^* nM
  20-HEPE concentration: 22 nM
  20-HETE concentration: 6.3 nM
  EKODE concentration: 40 nM
  PGD1 concentration: 2.3 nM
  PGD2 concentration: 42 nM
  PGE1 concentration: 3.7 nM
  PGE2 concentration: 21 nM
  PGF1α concentration: 6.9 nM
  TXB2 concentration: 31 nM
  TxB3 concentration: 1.2 nM
  dihomo-PGF2α concentration: 5.3 nM
[1]; mean (first listing, r6)
  PGF2α concentration: 57 nM
[1]; mean (second listing, r9)
  PGF2α concentration: 57 nM
